From the CheMixHub ionic liquid set

Assay: xn = mol fraction of the nth substance listed
Settings: 101 kPa, frequency 0.001 MHz

CCCCCCCCCCCCCCn1cc[n+](C)c1.[Br-] + CC[N+](CC)(CC)CC.[Br-] + O
Settings	electrical conductivity [S/m]
308.15 K, x1 = 5.334e-05, x2 = 0	0.0273
308.15 K, x1 = 5.335e-05, x2 = 1.802e-05	0.035
308.15 K, x1 = 5.336e-05, x2 = 3.604e-05	0.0423
308.15 K, x1 = 5.339e-05, x2 = 9.009e-05	0.063
308.15 K, x1 = 5.676e-05, x2 = 0	0.0282
308.15 K, x1 = 5.677e-05, x2 = 1.802e-05	0.0354
308.15 K, x1 = 5.678e-05, x2 = 3.604e-05	0.0428
308.15 K, x1 = 5.681e-05, x2 = 9.009e-05	0.063
308.15 K, x1 = 6e-05, x2 = 0	0.0288
308.15 K, x1 = 6.001e-05, x2 = 1.802e-05	0.0359
308.15 K, x1 = 6.003e-05, x2 = 3.604e-05	0.0432
308.15 K, x1 = 6.006e-05, x2 = 9.009e-05	0.0633
308.15 K, x1 = 6.343e-05, x2 = 0	0.0294
308.15 K, x1 = 6.344e-05, x2 = 1.802e-05	0.0364
308.15 K, x1 = 6.345e-05, x2 = 3.604e-05	0.0435
308.15 K, x1 = 6.349e-05, x2 = 9.009e-05	0.0636
308.15 K, x1 = 6.667e-05, x2 = 0	0.03
308.15 K, x1 = 6.668e-05, x2 = 1.802e-05	0.0368
308.15 K, x1 = 6.67e-05, x2 = 3.604e-05	0.0439
308.15 K, x1 = 6.673e-05, x2 = 9.009e-05	0.0637
308.15 K, x1 = 6.973e-05, x2 = 0	0.0305
308.15 K, x1 = 6.975e-05, x2 = 1.802e-05	0.0373
308.15 K, x1 = 6.976e-05, x2 = 3.604e-05	0.0442
308.15 K, x1 = 6.98e-05, x2 = 9.009e-05	0.0641
308.15 K, x1 = 7.28e-05, x2 = 0	0.0311
308.15 K, x1 = 7.281e-05, x2 = 1.802e-05	0.0375
308.15 K, x1 = 7.282e-05, x2 = 3.604e-05	0.0445
308.15 K, x1 = 7.287e-05, x2 = 9.009e-05	0.0646
308.15 K, x1 = 7.586e-05, x2 = 0	0.0316
308.15 K, x1 = 7.587e-05, x2 = 1.802e-05	0.0382
308.15 K, x1 = 7.589e-05, x2 = 3.604e-05	0.0453
308.15 K, x1 = 7.593e-05, x2 = 9.009e-05	0.065
308.15 K, x1 = 7.892e-05, x2 = 0	0.0321
308.15 K, x1 = 7.894e-05, x2 = 1.802e-05	0.0389
308.15 K, x1 = 7.895e-05, x2 = 3.604e-05	0.0455
308.15 K, x1 = 7.9e-05, x2 = 9.008e-05	0.0654
308.15 K, x1 = 8.18e-05, x2 = 0	0.0326
308.15 K, x1 = 8.182e-05, x2 = 1.802e-05	0.0391
308.15 K, x1 = 8.184e-05, x2 = 3.604e-05	0.0458
308.15 K, x1 = 8.188e-05, x2 = 9.008e-05	0.0658
308.15 K, x1 = 8.451e-05, x2 = 0	0.0329
308.15 K, x1 = 8.452e-05, x2 = 1.802e-05	0.0395
308.15 K, x1 = 8.454e-05, x2 = 3.604e-05	0.0462
308.15 K, x1 = 8.459e-05, x2 = 9.008e-05	0.066
308.15 K, x1 = 8.739e-05, x2 = 0	0.0333
308.15 K, x1 = 8.741e-05, x2 = 1.802e-05	0.0399
308.15 K, x1 = 8.742e-05, x2 = 3.604e-05	0.0464
308.15 K, x1 = 8.747e-05, x2 = 9.008e-05	0.0665
318.15 K, x1 = 4.74e-06, x2 = 0	0.00409
318.15 K, x1 = 4.74e-06, x2 = 1.802e-05	0.0198
318.15 K, x1 = 4.74e-06, x2 = 3.604e-05	0.0318
318.15 K, x1 = 4.74e-06, x2 = 9.009e-05	0.063
318.15 K, x1 = 9.35e-06, x2 = 0	0.00708
318.15 K, x1 = 9.35e-06, x2 = 1.802e-05	0.0223
318.15 K, x1 = 9.36e-06, x2 = 3.604e-05	0.0345
318.15 K, x1 = 9.36e-06, x2 = 9.009e-05	0.0648
318.15 K, x1 = 1.386e-05, x2 = 0	0.0101
318.15 K, x1 = 1.386e-05, x2 = 1.802e-05	0.025
318.15 K, x1 = 1.386e-05, x2 = 3.604e-05	0.0365
318.15 K, x1 = 1.387e-05, x2 = 9.009e-05	0.0665
318.15 K, x1 = 1.825e-05, x2 = 0	0.0127
318.15 K, x1 = 1.826e-05, x2 = 1.802e-05	0.0271
318.15 K, x1 = 1.826e-05, x2 = 3.604e-05	0.0389
318.15 K, x1 = 1.827e-05, x2 = 9.009e-05	0.0681
318.15 K, x1 = 2.252e-05, x2 = 0	0.0154
318.15 K, x1 = 2.253e-05, x2 = 1.802e-05	0.0294
318.15 K, x1 = 2.253e-05, x2 = 3.604e-05	0.0416
318.15 K, x1 = 2.255e-05, x2 = 9.009e-05	0.0705
318.15 K, x1 = 2.669e-05, x2 = 0	0.0182
318.15 K, x1 = 2.669e-05, x2 = 1.802e-05	0.0318
318.15 K, x1 = 2.67e-05, x2 = 3.604e-05	0.0432
318.15 K, x1 = 2.671e-05, x2 = 9.009e-05	0.0723
